Measured values taken from ChEMBL document CHEMBL4251560, “The Novel 4-Phenyl-2-Phenoxyacetamide Thiazoles modulates the tumor hypoxia leading to the crackdown of neoangiogenesis and evoking the cell death” (Eur J Med Chem, 2018).
Active and inactive are the calls of the source. The rule behind the calls is not given here.

What was measured:
[1] = test system: Mus musculus; assay: In vivo inhibition of HIF-1alpha expression in Swiss albino mouse EAC cells implanted with mouse EAC at 25 to 50 mg/kg, ip administered every alternate day for 3 days by immunoblot analysis; format: functional, organism-based
[2] = test system: Ehrlich; assay: Antitumor activity against mouse EAC cells implanted in ip dosed Swiss albino mouse assessed as decrease in tumor volume administered every alternate day for 3 days; format: functional, organism-based
[3] = test system: Mus musculus; assay: In vivo induction of apoptosis in mouse EAC cells implanted in Swiss albino mouse assessed as DNA fragmentation at 25 to 50 mg/kg, ip administered every alternate day for 3 days by DNA fragmentation assay; format: functional, organism-based
[4] = test system: Ehrlich; assay: In vivo induction of apoptosis in mouse EAC cells implanted in Swiss albino mouse assessed as EAC cell shrinkage at 25 to 50 mg/kg, ip administered every alternate day for 3 days by Geimsa staining-based microscopic analysis; format: functional, organism-based
[5] = test system: Mus musculus; assay: Toxicity in Swiss albino mouse implanted with mouse EAC cells assessed as induction of adverse effect on spleen at 25 to 50 mg/kg, ip administered every alternate day for 3 days; format: organism-based; conditions: in vivo, 72 h
[6] = Cytotoxicity against mouse DLA cells assessed as reduction in cell viability after 48 hrs by trypan blue exclusion assay; format: functional, cell-based
[7] = test system: Mus musculus; assay: Up-regulation of MDM2 protein expression in Swiss albino mouse EAC cells implanted with mouse EAC at 25 to 50 mg/kg, ip administered every alternate day for 3 days by immunoblot analysis; format: functional, organism-based
[8] = test system: MDA-MB-468; assay: Cytotoxicity against human MDA-MB-468 cells assessed as reduction in cell viability after 48 hrs by MTT assay; format: functional, cell-based; conditions: MDA-MB-468, 48 h
[9] = test system: Ehrlich; assay: Antitumor activity against mouse EAC cells implanted in ip dosed Swiss albino mouse assessed as reduction in ascite volume administered every alternate day for 3 days; format: functional
[10] = test system: A549; assay: Cytotoxicity against human A549 cells assessed as reduction in cell viability after 48 hrs by trypan blue exclusion assay; format: functional, cell-based; conditions: A549, 48 h
[11] = test system: Cornea; assay: Antiangiogenic activity in cornea of alkali injured rat eye assessed as induction of restraining of vessel sprouting applied to centre of cornea for 40 secs post alkali injury; format: functional
[12] = test system: MCF7; assay: Cytotoxicity against human MCF7 cells assessed as reduction in cell viability after 48 hrs by trypan blue exclusion assay; format: functional, cell-based; conditions: MCF7, 48 h
[13] = test system: MCF7; assay: Cytotoxicity against human MCF7 cells assessed as reduction in cell viability after 48 hrs by MTT assay; format: functional, cell-based; conditions: MCF7, 48 h
[14] = test system: Mus musculus; assay: Toxicity in Swiss albino mouse implanted with mouse EAC cells assessed as induction of adverse effect on liver at 25 to 50 mg/kg, ip administered every alternate day for 3 days; format: organism-based; conditions: in vivo, 72 h
[15] = test system: Mus musculus; assay: In vivo inhibition of VEGF secretion in Swiss albino mouse EAC cells implanted with mouse EAC at 25 to 50 mg/kg, ip administered every alternate day for 3 days by ELISA; format: functional, organism-based
[16] = test system: Ehrlich; assay: Antitumor activity against mouse EAC cells implanted in Swiss albino mouse assessed as decrease in tumor volume at 25 mg/kg, ip administered every alternate day for 3 days; format: functional; conditions: 72 h, read-out: TGI
[17] = test system: Ehrlich; assay: Antitumor activity against mouse EAC cells implanted in ip dosed Swiss albino mouse assessed as reduction in cell density administered every alternate day for 3 days; format: functional
[18] = test system: Ehrlich; assay: In vivo antiangiogenic activity in mouse EAC implanted in Swiss albino mouse assessed as regression of tumor-induced angiogenesis in peritoneum at 25 mg/kg, ip administered every alternate day for 3 days; format: functional; conditions: 72 h
[19] = test system: Ehrlich; assay: In vivo antiangiogenic activity in mouse EAC implanted in Swiss albino mouse administered ip assessed as regression of tumor-induced angiogenesis in peritoneum administered every alternate day for 3 days; format: functional, organism-based
[20] = Cytotoxicity against mouse DLA cells assessed as reduction in cell viability after 48 hrs by MTT assay; format: functional, cell-based
[21] = test system: Ehrlich; assay: Cytotoxicity against mouse EAC cells assessed as reduction in cell viability after 48 hrs by MTT assay; format: functional, cell-based
[22] = test system: A549; assay: Cytotoxicity against human A549 cells assessed as reduction in cell viability after 48 hrs by MTT assay; format: functional, cell-based; conditions: A549, 48 h
[23] = test system: MDA-MB-468; assay: Cytotoxicity against human MDA-MB-468 cells assessed as reduction in cell viability after 48 hrs by trypan blue exclusion assay; format: functional, cell-based; conditions: MDA-MB-468, 48 h
[24] = test system: Mus musculus; assay: Up-regulation of p53 protein expression in Swiss albino mouse EAC cells implanted with mouse EAC at 25 to 50 mg/kg, ip administered every alternate day for 3 days by immunoblot analysis; format: functional, organism-based
[25] = test system: Ehrlich; assay: Antitumor activity against mouse EAC solid tumor implanted in ip dosed Swiss albino mouse assessed as reduction in tumor volume administered every alternate day for 3 days; format: functional, organism-based
[26] = test system: Chorioallantoic membrane; assay: In vivo antiangiogenic activity in chicken chorioallantoic membrane assessed as inhibition of recombinant VEGF165-induced vessel formation after 3 days; format: functional, Gallus gallus
[27] = test system: Ehrlich; assay: In vivo induction of apoptosis in mouse EAC cells implanted in Swiss albino mouse assessed as EAC cell membrane blebbing at 25 to 50 mg/kg, ip administered every alternate day for 3 days by Geimsa staining-based microscopic analysis; format: functional, organism-based
[28] = test system: Ehrlich; assay: Cytotoxicity against mouse EAC cells assessed as reduction in cell viability after 48 hrs by trypan blue exclusion assay; format: functional, cell-based
[29] = test system: Ehrlich; assay: In vivo antiangiogenic activity in mouse EAC implanted in Swiss albino mouse assessed as regression of tumor-induced angiogenesis in peritoneum at 5 mg/kg, ip administered every alternate day for 3 days; format: functional; conditions: 72 h
[30] = test system: Ehrlich; assay: Antitumor activity against mouse EAC solid tumor implanted in Swiss albino mouse assessed as reduction in tumor growth at 25 mg/kg, ip administered every alternate day for 3 days by animal morphology analysis; format: functional, organism-based
[31] = test system: Ehrlich; assay: Antitumor activity against mouse EAC cells implanted in Swiss albino mouse assessed as decrease in tumor volume at 50 mg/kg, ip administered every alternate day for 3 days; format: functional; conditions: 72 h, read-out: TGI
[32] = test system: Ehrlich; assay: Antitumor activity against mouse EAC cells implanted in Swiss albino mouse assessed as mouse survival at 25 to 50 mg/kg, ip administered every alternate day for 3 days; format: functional
[33] = test system: Ehrlich; assay: Antitumor activity against mouse EAC solid tumor implanted in Swiss albino mouse assessed as reduction in tumor mass at 25 mg/kg, ip administered every alternate day for 3 days; format: functional
[34] = test system: Ehrlich; assay: In vivo induction of apoptosis in mouse EAC cells implanted in Swiss albino mouse assessed as induction of EAC cell irregular shape at 25 to 50 mg/kg, ip administered every alternate day for 3 days by Geimsa staining-based microscopic analysis; format: functional, organism-based

Cc1ccc(-c2csc(NC(=O)COc3ccc(F)cc3F)n2)cc1
inhibition [1]: Active | Activity [2]: Dose-dependent effect | Activity [3]: Active | Activity [4]: Active | Activity [5]: Non-Toxic | IC50 [6]: 13.9 µM | Activity [7]: Active | IC50 [8]: 10.5 µM | Activity [9]: Dose-dependent effect | fold change (FC) [9]: 3 - 4 | IC50 [10]: 13.2 µM | Activity [11]: 60% | IC50 [12]: 14 µM | IC50 [13]: 14.5 µM | Activity [14]: Non-Toxic | inhibition [15]: Active | inhibition in vivo at 25 mg/kg [16]: 74.3% | fold change (FC) [17]: 6 | inhibition in vivo at 25 mg/kg [18]: 30% | Activity [19]: Dose-dependent effect | IC50 [20]: 13.4 µM | IC50 [21]: 14.9 µM | IC50 [22]: 13.9 µM | IC50 [23]: 10.2 µM | Activity [24]: Active | Activity [25]: Dose-dependent effect | inhibition (INH) [26]: 80% | Activity [27]: Active | IC50 [28]: 14 µM | inhibition in vivo at 5 mg/kg [29]: 10% | TGI [30]: Active | inhibition in vivo at 50 mg/kg [31]: 80.2% | Survival [32]: >=23 - 25 day | Activity [33]: <=10 g | Activity [34]: Active
